In patent US20120245123A1, “METHODS FOR IMPROVING BONE HEALTH IN INFANTS USING PREBIOTICS” (ABBOTT LABORATORIES, priority 2011, published 2012):

Columns and labels:
[1] = system: femur, tibia and lumbar vertebra of rat offspring; test: Micro-CT of trabecular and cortical bone architecture in rat offspring after maternal diet supplementation; format: in vivo, Sprague-Dawley rats
Experimental: Fifty 10-week-old pregnant Sprague-Dawley rats at the eleventh day of gestation (Charles Rivers Laboratories, Orleans Cedex, France) are housed under standardized environmental conditions (22° C., relative humidity of 50%, artificial lighting on for 12 hours/day) and are given free access to deionized water during the test period. The rats are randomly divided into five groups of feeding (n=10/group): (1) Control Group (“Control”), who receives a standard purified rodent diet (SPRD); […] (3) Prebiotic group (“Prebiotic”), who receives the SPRD containing 7.5% of the total carbohydrate as inulin-type fructans (Synergy-1®, Orafti, Belgium); […] During their suckling period, the pups receive only the dam's milk. […] Sacrifices of rat pups are carried out at birth, weaning and at the end of the adolescence period. The whole bone mineral density (BMD) and bone mineral content (BMC) of the skeleton are measured at birth and at weaning by using a pDEXA densitometer (Norland Corp., Fort Atkinson, Wis., USA). In adolescent offspring, the determination of BMC and BMD are analyzed in isolated bones (femur, tibia and vertebrae). Determination of the trabecular architecture parameters (trabecular thickness, separation and number), bone length and bone volume fraction (BV/TV) is analyzed by Micro-computed tomography (micro-CT). Micro-CT analysis is carried out by the Bone & Joint Research Group (University of Southampton, UK) and cortical parameters are performed by SCANCO Medical AG (Bruttisellen, Switzerland). Micro-computed tomography (micro-CT) is a technique for the nondestructive assessment and analysis of the three-dimensional trabecular and cortical bone structural properties. Scanning with micro-CT can be achieved at resolutions as low as 5 μm, allowing for the determination of porosities and subtle modeling and remodeling events of the bone tissue. Furthermore, true three-dimensional image reconstructions permit the assessment of bone microarchitecture as a three dimensional structure, providing critical information to images collected through histomorphometry. In the present Example, femoral, tibia and vertebra cancellous bones are assessed using Metris (XTek) Benchtop 160Xi CT scanner (University of Southampton) and vertebra cortical bone is assessed using MicroCT-40 computed tomography system (Scanco Medical, Basserdorf, Switzerland). […] Micro-CT analysis also allows for the determination of various quality properties of the cortical bone. The bone fragility is influenced not only by the architecture but also by the tissue “quality”. The strength of a bone as an organ depends on the material properties of bone as a tissue. Stiffness, or the resistance of the whole bone to deformation by a load, is a key material property and requires a destructive mechanical technique if measurements are done in vivo. The non-destructive analysis of the volumetric bone mineral density of cortical bone (cortical vBMD) by micro CT has an approximately linear relationship with the stiffness of the cortical bone. Cortical thickness (C.Th) is one of the variables that helps to evaluate the modeling-derived changes provoked by growth. The cortical porosity (C.Sp) reflects the intracortical remodeling in the bone. Remodeling, that occurs in the surfaces of bone, could be enhanced if the pore size becomes larger and, therefore, with the increase of the cortical porosity. An increment on cortical porosity weakens the bone and decreases the bone strength. Results are expressed as mean±SEM, and the probability level at which the differences are considered significant is set at p<0.05. One-way ANOVA is used to evaluate differences attributable to the diet in the different markers, previously testing the homogeneity of variances by Levene's. A posteriori post hoc tests are carried out by the Dunnet test.

[2] = system: skeleton of rat offspring (whole body, femur, tibia, lumbar vertebra); test: pDEXA densitometry of BMD and BMC in rat offspring after maternal diet supplementation; format: in vivo, Sprague-Dawley rats; conditions: for lumbar vertebra BMC with respect to Control group / lumbar vertebra BMD with respect to Control group: adolescent offspring (90-day-old)
Experimental: Fifty 10-week-old pregnant Sprague-Dawley rats at the eleventh day of gestation (Charles Rivers Laboratories, Orleans Cedex, France) are housed under standardized environmental conditions (22° C., relative humidity of 50%, artificial lighting on for 12 hours/day) and are given free access to deionized water during the test period. The rats are randomly divided into five groups of feeding (n=10/group): (1) Control Group (“Control”), who receives a standard purified rodent diet (SPRD); […] (3) Prebiotic group (“Prebiotic”), who receives the SPRD containing 7.5% of the total carbohydrate as inulin-type fructans (Synergy-1®, Orafti, Belgium); […] During their suckling period, the pups receive only the dam's milk. […] Sacrifices of rat pups are carried out at birth, weaning and at the end of the adolescence period. The whole bone mineral density (BMD) and bone mineral content (BMC) of the skeleton are measured at birth and at weaning by using a pDEXA densitometer (Norland Corp., Fort Atkinson, Wis., USA). In adolescent offspring, the determination of BMC and BMD are analyzed in isolated bones (femur, tibia and vertebrae). Determination of the trabecular architecture parameters (trabecular thickness, separation and number), bone length and bone volume fraction (BV/TV) is analyzed by Micro-computed tomography (micro-CT). Micro-CT analysis is carried out by the Bone & Joint Research Group (University of Southampton, UK) and cortical parameters are performed by SCANCO Medical AG (Bruttisellen, Switzerland). DEXA scan is a technique used in the clinical practice for the analysis of bone health. Two main bone properties can be measured by this technique: Bone Mineral Content (BMC) and areal Bone Mineral Density (BMD). BMC determines the mass of mineral present in the whole body or in the selected skeletal region. BMC changes reflect the result of the metabolic “mass” balance between bone formation and bone destruction. BMC represented relative to the projected bone area refers to BMD. BMD represents the […] present in the bone region studied. […] The manufacturer's software for research in small animals calculates BMC and BMD for the isolated bone. Femur is measured from the femoral neck to the knee joint. Tibia is measured from the knee joint to the joint between tibia and calcaneus, also including fibula. […] Results are expressed as mean±SEM, and the probability level at which the differences are considered significant is set at p<0.05. One-way ANOVA is used to evaluate differences attributable to the diet in the different markers, previously testing the homogeneity of variances by Levene's. A posteriori post hoc tests are carried out by the Dunnet test.

[3] = adolescent offspring (90-day-old)

| Molecule | vertebra BV/TV enhanced in comparison with Control group [1, 3] | vertebra cortical porosity, effect [1, 3] | vertebra cortical vBMD, effect [1, 3] | vertebra trabecular separation respective to Control group [1, 3] | vertebra trabecular thickness enhanced in comparison with Control group [1, 3] | vertebrae cortical thickness, effect [1, 3] | trabecular number of femur and tibia respective to Control group ([1]; pups at delivery) | trabecular separation of femur and tibia respective to Control group ([1]; pups at delivery) | trabecular thickness of femur and tibia respective to Control group ([1]; pups at delivery) | increase in vertebra trabecular thickness respective to Control group ([1]; pups at weaning) | vertebra BV/TV ratio respective to Control group ([1]; pups at weaning) | vertebra trabecular separation respective to Control group ([1]; pups at weaning) | lumbar vertebra BMC with respect to Control group [2] | lumbar vertebra BMD with respect to Control group [2] | cortical features of the vertebra [1, 3] | vertebra BV/TV, effect versus Control group [1, 3] | vertebra trabecular thickness, effect versus Control group [1, 3] | whole body BMC relative to Control group ([2]; pups at weaning) |
| --- | --- | --- | --- | --- | --- | --- | --- | --- | --- | --- | --- | --- | --- | --- | --- | --- | --- | --- |
| O=C([O-])[O-].[Ca+2] [Calcium, calcium carbonate] | 22% | decrease | increase | significant decrease | 17% | without significantly affecting | greater | decrease in the trabecular separation, although statistical differences are not achieved | lower | ~30% | statistically different | statistically different | no differences | no differences | – | – | – | – |
| Vitamin D | – | – | – | – | – | – | – | – | – | – | – | – | no differences | no differences | does not show any improvement | No effect | No effect | lower |
